Results on 7 molecules are retold here after US4252808A, “β-Lactam antibacterial agents, their use in pharmaceutical compositions, the process for their preparation and intermediates for use in that process” (Beecham Group Limited, priority 1978, dated 1981).

Broadly, the MIC is the least concentration at which growth counts as inhibited. A higher MIC goes with a need for much substance.

SMILES strings stand for the structures. ≈ marks a conversion by molar mass, not a printed value. Where a name gives a salt, the structure may show the parent alone.

Common to all, as to type: cell-based
In test [1] the test system is B. subtilis. As to the kind of experiment: MIC, nutrient agar. As to conditions: Bacillus subtilis.
The subject of test [2] is β-Haemolytic Strep CN10. Briefly: MIC, nutrient agar.
Test [3] has as its system Staph. aureus Oxford. Briefly: MIC, nutrient agar. The note with it: Staphylococcus aureus.
Test [4] relates to Staph. aureus Russell. Briefly: MIC, nutrient agar. The note with it: Staphylococcus aureus, Staph. aureus Russell (lactamase-producing strain). The source says: *Lactamase-producing strain
*lactamase producing strain

For test [5], the system named is E. coli NCTC 10418. As to the kind of experiment: MIC, nutrient broth (10^-4 dilution). As to conditions: Escherichia coli, NCTC10418.
Test [6] concerns Staph. aureus Russell. As to the kind of experiment: MIC, nutrient broth (10^-4 dilution). The note with it: Staphylococcus aureus, Staph. aureus Russell (lactamase producing strain). The text has this:
*Lactamase producing strains
*Lactamase producing strain

Test [7] relates to E. coli JT 1. Briefly: MIC, nutrient broth (10^-4 dilution). The note with it: Escherichia coli, JT1.
Test [8] has as its system Staph. aureus Oxford. Briefly: MIC, nutrient broth (10^-4 dilution). As to conditions: Staphylococcus aureus.
The subject of test [9] is E. coli JT 1. Briefly: MIC, nutrient broth. The note with it: Escherichia coli, JT1.
In test [10] the test system is Staph. aureus Russell. Briefly: MIC, nutrient broth. As to conditions: Staphylococcus aureus, Staph. aureus Russell (lactamase producing strain). The text has this: | *lactamase producing strain
Test [11] deals with Staph. aureus Oxford. As to the kind of experiment: MIC, nutrient broth. As to conditions: Staphylococcus aureus.
For test [12], the system named is E. coli NCTC 10418. As to the kind of experiment: MIC, nutrient broth. The note with it: Escherichia coli, NCTC10418.
Test [13] concerns S. aureus Oxford. As to the kind of experiment: MIC, serial dilution in nutrient agar with 5% horse blood (Table 1). As to conditions: Staphylococcus aureus, inoculum 0.001 ml undiluted broth culture. The procedure: (§1) | *Serial dilution in nutrient agar containing 5% horse blood, inoculum | 0.001 ml undiluted broth culture.
Test [14] deals with S. aureus 1517. The description is as above. As to conditions: Staphylococcus aureus, inoculum 0.001 ml undiluted broth culture. The procedure:
as §1

In test [15] the test system is E. coli JT 4. The test is described as above. The note with it: Escherichia coli, JT4, inoculum 0.001 ml undiluted broth culture. On the procedure: as §1
For test [16], the system named is P. morganii. Described as above. The note with it: Morganella morganii, inoculum 0.001 ml undiluted broth culture. On the procedure: as §1
The test system of test [17] is S. faecalis 1. The test is described as above. As to conditions: Enterococcus faecalis, inoculum 0.001 ml undiluted broth culture. On the procedure: as §1
For test [18], the system named is S. pyogenes CN 10. The test is described as above. As to conditions: Streptococcus pyogenes, CN10, inoculum 0.001 ml undiluted broth culture. The procedure:
as §1

For test [19], the system named is K. aerogenes A. Described as above. As to conditions: Klebsiella aerogenes, inoculum 0.001 ml undiluted broth culture. On the procedure:
as §1

The test system of test [20] is P. mirabilis C 977. The test is described as above. As to conditions: Proteus mirabilis, C977, inoculum 0.001 ml undiluted broth culture. The procedure: as §1
The subject of test [21] is P. rettgeri. The test is described as above. As to conditions: Providencia rettgeri, inoculum 0.001 ml undiluted broth culture. On the procedure:
as §1

Test [22] has as its system B. subtilis. The description is as above. As to conditions: Bacillus subtilis, inoculum 0.001 ml undiluted broth culture. On the procedure: as §1
The subject of test [23] is S. aureus Russell. Described as above. As to conditions: Staphylococcus aureus, inoculum 0.001 ml undiluted broth culture. The procedure: as §1
For test [24], the system named is S. aureus Oxford. Briefly: MIC, serial dilution in DST agar with 10% horse blood (Table 2). The note with it: Staphylococcus aureus, inoculum diluted 10^-2. The text has this:
(§2) *Serial dilution in DST agar containing 10% horse blood, inoculum 0.001 m
(§3) broth culture diluted 10^-2 for Grampositive and 10^-4 for
(§4) Gramnegative organisms.

Test [25] relates to S. aureus 1517. The description is as above. The note with it: Staphylococcus aureus, inoculum diluted 10^-2.
Description: as §2, §3, §4

The subject of test [26] is E. cloacae Nl. The description is as above. The note with it: Enterobacter cloacae, inoculum diluted 10^-4.
Description: as §2, §3, §4

Test [27] concerns S. faecalis 1. The test is described as above. The note with it: Enterococcus faecalis, inoculum diluted 10^-2.
Description: as §2, §3, §4

Test [28] relates to P. rettgeri WM 16. The description is as above. The note with it: Providencia rettgeri, WM16, inoculum diluted 10^-4.
Description: as §2, §3, §4

In test [29] the test system is S. pyogenes CN 10. Described as above. As to conditions: Streptococcus pyogenes, CN10, inoculum diluted 10^-2.
Description: as §2, §3, §4

For test [30], the system named is K. aerogenes A. The test is described as above. As to conditions: Klebsiella aerogenes, inoculum diluted 10^-4.
Description: as §2, §3, §4

Test [31] concerns P. mirabilis C 977. The test is described as above. As to conditions: Proteus mirabilis, C977, inoculum diluted 10^-4.
Description: as §2, §3, §4

In test [32] the test system is B. subtilis. Described as above. As to conditions: Bacillus subtilis, inoculum diluted 10^-2.
Description: as §2, §3, §4

For test [33], the system named is P. morganii 1580. Described as above. The note with it: Morganella morganii, inoculum diluted 10^-4.
Description: as §2, §3, §4

In test [34] the test system is S. aureues Russell. The test is described as above. As to conditions: Staphylococcus aureus, inoculum diluted 10^-2.
Description: as §2, §3, §4

Test [35] has as its system E. coli 0111. Described as above. The note with it: Escherichia coli, inoculum diluted 10^-4.
Description: as §2, §3, §4

Test [36] relates to S. pneumoniae CN 33. The description is as above. The note with it: Streptococcus pneumoniae, CN33, inoculum diluted 10^-2.
Description: as §2, §3, §4

Test [37] has as its system E. cloacae Nl. Briefly: MIC, serial dilution in nutrient agar with 5% horse blood (Table 1). As to conditions: Enterobacter cloacae, inoculum 0.001 ml undiluted broth culture. On the procedure: as §1
For test [38], the system named is P. morganii. As to the kind of experiment: MIC, nutrient agar. The note with it: Morganella morganii.
For test [39], the system named is Klebsiella aerogenes A. Briefly: MIC, nutrient agar.
Test [40] has as its system P. rettgeri. Briefly: MIC, nutrient agar. As to conditions: Providencia rettgeri.
In test [41] the test system is Ps. aeruginosa Dalgleish. As to the kind of experiment: MIC, nutrient agar. The note with it: Pseudomonas aeruginosa, Ps. aeruginosa Dalgleish 10^-2.
Test [42] has as its system P. mirabilis C977. Briefly: MIC, nutrient agar. The note with it: Proteus mirabilis.
For test [43], the system named is E. coli JT 4. As to the kind of experiment: MIC, nutrient agar. As to conditions: Escherichia coli, JT4.
Test [44] relates to Enterobacter cloacae Nl. Briefly: MIC, nutrient agar.

In the case of `O=C(COc1ccccc1)N[C@@H]1C(=O)N2C(C(=O)O)=Cc3cnnn3[C@H]12` [Compound 11, (3aR,4S)4,5-dihydro-5-oxo-4-phenoxyacetamido-3aH-azeto-[1,2-a]v-triazolo[3,4-c]pyrimidine-7-carboxylic acid], the MIC was determined as 2.5 µg/mL (≈ 7.04 µM) in test [1], 10 µg/mL (≈ 28.1 µM) in test [2], 10 µg/mL (≈ 28.1 µM) in test [3] and 50 µg/mL (≈ 141 µM) in test [4].
`O=C(O)C1=Cc2c(-c3ccccc3)nnn2[C@@H]2[C@H](NC(=O)[C@H](O)c3ccccc3)C(=O)N12` [Compound 18, (3aR,4S) 4,5-Dihydro-5-oxo-9-phenyl-4-D-mandelylamino-3aH-azeto-[1,2a]v-triazolo[3,4-c]pyrimidine-7-carboxylic acid]: the MIC in test [5] worked out at 125 µg/mL (≈ 290 µM); in test [6] it was 125 µg/mL (≈ 290 µM); in [7], 125 µg/mL (≈ 290 µM); in test [8], 31 µg/mL (≈ 71.9 µM).
For `O=C(COc1ccccc1)N[C@@H]1C(=O)N2C(C(=O)O)=Cc3c(-c4ccc([N+](=O)[O-])cc4)nnn3[C@H]12` [Compound 33, (3aR,4S) 4,5-Dihydro-5-oxo-9-p-nitrophenyl-4-phenoxy-acetamido-3aH azeto[1,2-a]v-triazolo[3,4-c]pyrimidine-7-carboxylic acid], the MIC in [9] turned out to be 500 µg/mL (≈ 1050 µM); in test [10], 31 µg/mL (≈ 65.1 µM); in test [11], 16 µg/mL (≈ 33.6 µM); in [12] it was 500 µg/mL (≈ 1050 µM).
With `N[C@@H](C(=O)N[C@@H]1C(=O)N2C(C(=O)O)=Cc3c(-c4ccccc4)nnn3[C@H]12)c1ccccc1` [Compound 24, (3aR,4S)-4,5-Dihydro-5-oxo-9-phenyl-4-D-α-phenylglycylamino-3aH-azeto[1,2-a]v-triazolo [3,4-c]pyrimidine-7-carboxylic acid, trifluoroacetic acid salt], the MIC in test [5] is 125 µg/mL; in test [6], 125 µg/mL; in [7], 125 µg/mL; in test [8] it was 62 µg/mL.
As to `CC1=C(C(=O)O)N2C(=O)[C@@H](NC(=O)Cc3cccs3)[C@H]2n2nncc21` [Compound 43, (3aR,4S) 4,5-Dihydro-5-oxo-8-methyl-4-(2-thienylacetamido)-3aH-azeto[1,2-a]y-triazolo[3,4-c]pyrimidine-7-carboxylic acid], the MIC in [13] was 1 µg/mL (≈ 2.78 µM); in test [14] it was 2.5 µg/mL (≈ 6.96 µM); in test [15] it was > 100 µg/mL; in test [16] it was > 100 µg/mL; in test [17], 2.5 µg/mL (≈ 6.96 µM); in test [18] it was < 0.2 µg/mL. Also, the MIC in [19] was 50 µg/mL (≈ 139 µM); in test [20], 10 µg/mL (≈ 27.8 µM); in test [21], > 100 µg/mL; in test [22], < 0.2 µg/mL; in test [23], 2.5 µg/mL (≈ 6.96 µM); in test [24] it was 2.5 µg/mL (≈ 6.96 µM). Moreover, the MIC in [25] is 5 µg/mL (≈ 13.9 µM); in test [26], > 100 µg/mL; in test [27], 5 µg/mL (≈ 13.9 µM); in test [28] it was > 100 µg/mL; in [29], ≤ 0.2 µg/mL; in test [30] it was 2.5 µg/mL (≈ 6.96 µM). Moreover, the MIC is 2.5 µg/mL (≈ 6.96 µM) in test [31]; ≤ 0.2 µg/mL in [32]; 2.5 µg/mL (≈ 6.96 µM) in test [33]; 1 µg/mL (≈ 2.78 µM) in test [34]; 10 µg/mL (≈ 27.8 µM) in test [35]; ≤ 0.2 µg/mL in [36].
Turning to `CC1=C(C(=O)O)N2C(=O)[C@@H](NC(=O)C(C(=O)Oc3ccccc3)c3ccccc3)[C@H]2n2nncc21` (stereo partly drawn) [Compound 44, (3aR,4S) 4,5-Dihydro-5-oxo-8-methyl-4-DL (α-phenoxycarbonylphenyl-acetamido)-3aH-azeto[1,2-a]v-triazolo[3,4-c]pyrimidine-7-carboxylic acid], the MIC is 50 µg/mL (≈ 106 µM) in [13]; > 100 µg/mL in test [14]; > 100 µg/mL in [15]; > 100 µg/mL in test [37]; > 100 µg/mL in test [16]; > 100 µg/mL in test [17]. Moreover, the MIC in test [19] was 50 µg/mL (≈ 106 µM); in [20], 50 µg/mL (≈ 106 µM); in test [21], > 50 µg/mL; in test [22] it was 25 µg/mL (≈ 52.8 µM); in test [23] it was 100 µg/mL (≈ 211 µM); in test [24] it was 25 µg/mL (≈ 52.8 µM). The MIC in test [25] is 100 µg/mL (≈ 211 µM); in test [26] it was 50 µg/mL (≈ 106 µM); in test [27] it was > 100 µg/mL; in test [28], 10 µg/mL (≈ 21.1 µM); in test [29], 10 µg/mL (≈ 21.1 µM); in [30], 10 µg/mL (≈ 21.1 µM). The MIC in [31] amounted to 10 µg/mL (≈ 21.1 µM); in test [32], 25 µg/mL (≈ 52.8 µM); in [33], 10 µg/mL (≈ 21.1 µM); in test [34], 25 µg/mL (≈ 52.8 µM); in [35] it was 10 µg/mL (≈ 21.1 µM); in test [36], 10 µg/mL (≈ 21.1 µM).
On to `CC1=C(C(=O)O)N2C(=O)[C@@H](NC(=O)COc3ccccc3)[C@H]2n2nncc21` [Compound 41, (3aR,4S) 4,5-Dihydro-5-oxo-8-methyl-4-phenoxyacetamido-3aH azeto[1,2-a]v-triazolo[3,4-c]pyrimidine-7-carboxylate acid], for which the MIC is > 100 µg/mL in test [38]; < 0.2 µg/mL in test [1]; 100 µg/mL (≈ 271 µM) in test [39]; 0.5 µg/mL (≈ 1.35 µM) in [2]; 100 µg/mL (≈ 271 µM) in [40]; 100 µg/mL (≈ 271 µM) in test [41]. Further, the MIC in [3] was 2.5 µg/mL (≈ 6.77 µM); in [42], > 100 µg/mL; in [43] it was 100 µg/mL (≈ 271 µM); in test [44], 100 µg/mL (≈ 271 µM); in test [4] it was 5 µg/mL (≈ 13.5 µM).
